Measurements reported in patent publication US20240148821A1, “PHARMACEUTICAL USE OF CYCLIC PEPTIDE COMPOUND” (CHUGAI SEIYAKU KABUSHIKI KAISHA, priority 2021, published 2024).
Numbered stars: 1 amine (or outer) side, 2 acyl side, 3 side chain; on linkers, the order of the positions; unused ones are H or OH. Bridge positions count the residues as written; N and C are the ends. Square brackets hold non-standard residues; d marks the D form. Peptide text beside a SMILES is read from it. * marks the point of attachment. hPhe(3,5-F2-4-CF3) = N[C@@H](CCc1cc(F)c(C(F)(F)F)c(F)c1)C(=O)O; hPhe(3-Cl-4-CF3) = N[C@@H](CCc1ccc(C(F)(F)F)c(Cl)c1)C(=O)O; hPhe(3-F,4-CF3) = N[C@@H](CCc1ccc(C(F)(F)F)c(F)c1)C(=O)O; NEtPhe(4-CF3) = CCN[C@@H](Cc1ccc(C(F)(F)F)cc1)C(=O)O; NMePhe(4-CF3) = CN[C@@H](Cc1ccc(C(F)(F)F)cc1)C(=O)O; X16 = CS(=O)(=O)c1ccc(CC[C@H](N[*:1])C(=O)[*:2])cc1; NMeAbu(4,4,4-F3) = CN[C@@H](CC(F)(F)F)C(=O)O; NMePhe(4-Me) = CN[C@@H](Cc1ccc(C)cc1)C(=O)O; NMedβ3hAla = C[C@H](CC(=O)[*:2])N(C)[*:1]; NMeGly(cPent) = CN[C@H](C(=O)O)C1CCCC1; Pro(4,4-F2) = O=C(O)[C@@H]1CC(F)(F)CN1; NMeCha = CN[C@@H](CC1CCCCC1)C(=O)O; Hyp = O=C(O)[C@@H]1C[C@@H](O)CN1; NEtLeu = CCN[C@@H](CC(C)C)C(=O)O; NMeAhp(2) = CCCCC[C@H](NC)C(=O)O; NMeChg = CN[C@H](C(=O)O)C1CCCCC1; NMeI = CC[C@H](C)[C@H](NC)C(=O)O; X17 = FC1(F)CN(*)CC(F)(F)C1(F)F; NMeD = CN[C@@H](CC(=O)O)C(=O)O; NMeL = CN[C@@H](CC(C)C)C(=O)O; hLeu = CC(C)CC[C@H](N)C(=O)O; NMeV = CN[C@H](C(=O)O)C(C)C; d(β3hA) = C[C@@H](N)CC(=O)O; Azetidin(1-yl) = C1CN(*)C1; NMeC = CN[C@@H](CS)C(=O)O; dNMeS = CN[C@H](CO)C(=O)O; NMeA = CN[C@@H](C)C(=O)O; NMeAib = CNC(C)(C)C(=O)O; Piperidide = C1CCN(*)CC1; Pyrrolidide = C1CCN(*)C1; Ac5c = NC1(C(=O)O)CCCC1; Aze = O=C(O)[C@@H]1CCN1; Sar = CNCC(=O)O

Columns and labels:
[1] = test system: Human pancreatic cancer cell line AsPC-1 (G12D mutation Kras); assay: AsPC-1 cell growth inhibition (AsPC-1 CGI); format: cell-based; settings: read-out: AsPC-1 cell growth inhibition, 50% growth inhibitory concentration (IC50 value); 96 hours, CellTiter-Glo, values classified in ranges
[2] = target: protein-protein interaction between Kras and SOS1 (biotin-tagged human Kras loaded with GDP, His-tagged human SOS1) (Homo sapiens (Human), UniProt P01116, G12D); assay: Protein-protein interaction inhibition between Kras and SOS1 (KrasG12D-SOS PPI) using AlphaScreen; format: biochemical; settings: AlphaScreen; biotin-tagged human Kras loaded with GDP, His-tagged human SOS1; read-out: KRAS G12D-SOS PPI IC50;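 also: kras produced in E. coli, Ni-coupled donor beads and streptavidin acceptor beads, excitation 680 nm with emission detected at 520–620 nm via singlet oxygen transfer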

Structure (SMILES) | IC50 [1] | IC50 [2]
CC[C@H](C)[C@@H]1NC(=O)[C@H](CC(C)C)N(C)C(=O)C[C@@H](C(=O)N2CC(F)(F)C(F)(F)C(F)(F)C2)N(C)C(=O)[C@H](C2CCCCC2)N(C)C(=O)C2(CCCC2)NC(=O)[C@@H]2CCCN2C(=O)[C@H](CCc2ccc(C(F)(F)F)c(Cl)c2)NC(=O)CN(C)C(=O)[C@H](CC2CCCCC2)N(C)C(=O)CN(C)C(=O)CN(C)C1=O [Compound 1229] ([NMeL]I[Sar][Sar][NMeCha][Sar][hPhe(3-Cl-4-CF3)]P[Ac5c][NMeChg][NMeD]-X17; lactam N-11) | > 500 nM | 46 nM
CCO[C@@H]1C[C@H]2C(=O)NC3(CCCC3)C(=O)N(C)[C@@H](C3CCCC3)C(=O)N(C)[C@H](C)CC(=O)N(C)[C@@H](CC(C)C)C(=O)N[C@@H]([C@@H](C)CC)C(=O)N(C)[C@@H](C)C(=O)N3CC[C@H]3C(=O)N(C)[C@@H](Cc3ccc(C(F)(F)F)cc3)C(=O)N(C)CC(=O)N[C@@H](CCc3cc(F)c(C(F)(F)F)c(F)c3)C(=O)N2C1 [Compound 344] (cyclo([Ac5c][NMeGly(cPent)][NMedβ3hAla][NMeL]I[NMeA][Aze][NMePhe(4-CF3)][Sar][hPhe(3,5-F2-4-CF3)][Hyp](Et))) | ≤ 20 nM | 0.83 nM
CC[C@H](C)[C@@H]1NC(=O)[C@H](CC(C)C)N(C)C(=O)C[C@@H](C(=O)N2CCC2)N(C)C(=O)[C@H](C2CCCC2)N(C)C(=O)C2(CCCC2)NC(=O)[C@@H]2CC(F)(F)CN2C(=O)[C@H](CCc2cc(F)c(C(F)(F)F)c(F)c2)NC(=O)CN(C)C(=O)[C@H](CC2CCCCC2)N(C)C(=O)[C@@H]2CCN2C(=O)[C@H](C)N(C)C1=O [Compound 1248] ([NMeL]I[NMeA][Aze][NMeCha][Sar][hPhe(3,5-F2-4-CF3)][Pro(4,4-F2)][Ac5c][NMeGly(cPent)][NMeD]-{Azetidin(1-yl)}; lactam N-11) | ≤ 20 nM | 0.67 nM
CC[C@H](C)[C@@H]1NC(=O)[C@H](CC(C)C)N(C)C(=O)C[C@@H](C)N(C)C(=O)[C@H](CC(C)C)NC(=O)C(C)(C)N(C)C(=O)[C@H](CC(C)C)NC(=O)[C@H](CCc2ccc(C(F)(F)F)c(Cl)c2)NC(=O)CN(C)C(=O)[C@H](CC2CCCCC2)N(C)C(=O)CN(C)C(=O)CN(C)C1=O [Compound 1076] (cyclo(I[Sar][Sar][NMeCha][Sar][hPhe(3-Cl-4-CF3)]L[NMeAib]L[NMedβ3hAla][NMeL])) | > 500 nM | 19 nM
CC[C@H](C)[C@@H]1NC(=O)[C@H](CC(C)C)N(C)C(=O)C[C@@H](C)NC(=O)[C@H](C2CCCC2)N(C)C(=O)[C@@H](C)NC(=O)[C@@H]2CCCN2C(=O)[C@H](CCc2ccc(C(F)(F)F)c(Cl)c2)NC(=O)CN(C)C(=O)[C@H](Cc2ccc(C)cc2)N(C)C(=O)[C@@H]2CCN2C(=O)[C@H](C)N(C)C1=O [Compound 1222] (cyclo([Aze][NMePhe(4-Me)][Sar][hPhe(3-Cl-4-CF3)]P[dA][NMeGly(cPent)][d(β3hA)][NMeL]I[NMeA])) | > 500 nM | 25 nM
CC(C)CC[C@@H]1NC(=O)[C@H](CC(C)C)N(C)C(=O)C[C@@H](C(=O)N2CCCCC2)N(C)C(=O)[C@H](C(C)C)N(C)C(=O)C2(CCCC2)NC(=O)[C@@H]2CCCN2C(=O)[C@H](CCc2ccc(C(F)(F)F)c(Cl)c2)NC(=O)CN(C)C(=O)[C@H](CC2CCCCC2)N(C)C(=O)[C@@H]2CCN2C(=O)[C@H](C)N(C)C1=O [Compound 1697] ([NMeL][hLeu][NMeA][Aze][NMeCha][Sar][hPhe(3-Cl-4-CF3)]P[Ac5c][NMeV][NMeD]-Piperidide; lactam N-11) | > 500 nM | 110 nM
CCCCC[C@H]1C(=O)N[C@@H]([C@@H](C)CC)C(=O)N[C@@H](C)C(=O)N2CC[C@H]2C(=O)N(C)[C@@H](CC2CCCCC2)C(=O)N(C)CC(=O)N[C@@H](CCc2ccc(C(F)(F)F)c(F)c2)C(=O)N2CCC[C@H]2C(=O)NC2(CCCC2)C(=O)N(C)[C@@H](C2CCCC2)C(=O)N(C)[C@H](C(=O)N(C)C)CC(=O)N1C [Compound 1117] ([NMeAhp(2)]IA[Aze][NMeCha][Sar][hPhe(3-F,4-CF3)]P[Ac5c][NMeGly(cPent)][NMeD]-NMe2; lactam N-11) | ≤ 20 nM | 2.2 nM
CCO[C@@H]1C[C@H]2C(=O)NC3(CCCC3)C(=O)N(C)[C@@H]([C@@H](C)CC)C(=O)N(C)[C@H](C)CC(=O)N(C)[C@@H](CC(C)C)C(=O)N[C@@H]([C@@H](C)CC)C(=O)N(C)[C@@H](C)C(=O)N3CC[C@H]3C(=O)N(C)[C@@H](Cc3ccc(C(F)(F)F)cc3)C(=O)N(C)CC(=O)N[C@@H](CCc3ccc(C(F)(F)F)c(Cl)c3)C(=O)N2C1 [Compound 301] (cyclo([Ac5c][NMeI][NMedβ3hAla][NMeL]I[NMeA][Aze][NMePhe(4-CF3)][Sar][hPhe(3-Cl-4-CF3)][Hyp](Et))) | ≤ 20 nM | 0.74 nM
CC[C@H](C)[C@@H]1NC(=O)[C@H](CC(C)C)N(CC)C(=O)C[C@@H](C(=O)N2CCCC2)N(C)C(=O)[C@H]([C@@H](C)CC)N(C)C(=O)C2(CCCC2)NC(=O)[C@@H]2CCCN2C(=O)[C@H](CCc2ccc(C(F)(F)F)c(Cl)c2)NC(=O)CN(C)C(=O)[C@H](Cc2ccc(C(F)(F)F)cc2)N(C)C(=O)[C@@H]2CCN2C(=O)[C@H](C)N(C)C1=O [Compound 1190] ([NEtLeu]I[NMeA][Aze][NMePhe(4-CF3)][Sar][hPhe(3-Cl-4-CF3)]P[Ac5c][NMeI][NMeD]-Pyrrolidide; lactam N-11) | ≤ 20 nM | 0.83 nM
CC[C@H](C)[C@@H]1NC(=O)[C@H](CC(C)C)N(C)C(=O)C[C@@H](C(=O)N2CCCCC2)N(C)C(=O)[C@H](C2CCCCC2)N(C)C(=O)C2(CCCC2)NC(=O)[C@@H](CO)N(C)C(=O)[C@H](CCc2ccc(C(F)(F)F)c(Cl)c2)NC(=O)CN(C)C(=O)[C@H](CC2CCCCC2)N(C)C(=O)CN(C)C(=O)CN(C)C1=O [Compound 1448] ([NMeL]I[Sar][Sar][NMeCha][Sar][hPhe(3-Cl-4-CF3)][dNMeS][Ac5c][NMeChg][NMeD]-Piperidide; lactam N-11) | > 500 nM | 1.1 nM
CC[C@H](C)[C@@H]1NC(=O)CSC[C@@H](C(=O)N(C)C)N(C)C(=O)[C@H](C2CCCC2)N(C)C(=O)C2(CCCC2)NC(=O)[C@@H]2CCCN2C(=O)[C@H](CCc2ccc(C(F)(F)F)c(Cl)c2)NC(=O)CN(C)C(=O)[C@H](CC2CCCCC2)N(C)C(=O)CN(C)C(=O)CN(C)C1=O [Compound 2172, (3S,9S,18S,24R,27S,33S)-18-[(2S)-butan-2-yl]-3-[2-[3-chloro-4-(trifluoromethyl)phenyl]ethyl]-9-(cyclohexylmethyl)-27-cyclopentyl-N,N,7,10,13,16,25,28-octamethyl-2,5,8,11,14,17,20,26,29,32-decaoxospiro[22-thia-1,4,7,10,13,16,19,25,28,31-decazabicyclo[31.3.0]hexatriacontane-30,1′-cyclopentane]-24-carboxamide] ({CH2CO}-I[Sar][Sar][NMeCha][Sar][hPhe(3-Cl-4-CF3)]P[Ac5c][NMeGly(cPent)][NMeC]-NMe2; thioether N-10) | > 500 nM | 14 nM
CC[C@H](C)[C@@H]1NC(=O)[C@H](CC(C)C)N(C)C(=O)C[C@@H](C(=O)N2CCCC2)N(C)C(=O)[C@H]([C@@H](C)CC)N(C)C(=O)C2(CCCC2)NC(=O)[C@@H]2CCCN2C(=O)[C@H](CCc2ccc(C(F)(F)F)c(Cl)c2)NC(=O)CN(C)C(=O)[C@H](Cc2ccc(C(F)(F)F)cc2)N(CC)C(=O)[C@@H]2CCN2C(=O)[C@H](C)N(C)C1=O [Compound 1319] ([NMeL]I[NMeA][Aze][NEtPhe(4-CF3)][Sar][hPhe(3-Cl-4-CF3)]P[Ac5c][NMeI][NMeD]-Pyrrolidide; lactam N-11) | ≤ 20 nM | 0.82 nM
CC[C@H](C)[C@@H]1NC(=O)[C@H](CC(C)C)N(C)C(=O)C[C@@H](C(=O)N2CCCCC2)N(C)C(=O)[C@H](C2CCCCC2)N(C)C(=O)C2(CCCC2)NC(=O)[C@@H]2CCCN2C(=O)[C@H](CCc2ccc(S(C)(=O)=O)cc2)NC(=O)CN(C)C(=O)[C@H](CC2CCCCC2)N(C)C(=O)CN(C)C(=O)CN(C)C1=O [Compound 2058, (3S,9S,18S,21S,25S,28S,34S)-28-cyclohexyl-9-(cyclohexylmethyl)-21-isobutyl-7,10,13,16,22,26,29-heptamethyl-18-[(1S)-1-methylpropyl]-3-[2-(4-methylsulfonylphenyl)ethyl]-25-(piperidine-1-carbonyl)spiro[1,4,7,10,13,16,19,22,26,29,32-undecazabicyclo[32.3.0]heptatriacontane-31,1′-cyclopentane]-2,5,8,11,14,17,20,23,27,30,33-undecone] ([NMeL]I[Sar][Sar][NMeCha][Sar][X16]P[Ac5c][NMeChg][NMeD]-Piperidide; lactam N-11) | > 500 nM | 380 nM
CC(C)C[C@H]1C(=O)N[C@@H]([C@@H](C)O)C(=O)N(C)[C@@H](C)C(=O)N2CC[C@H]2C(=O)N(C)[C@@H](CC2CCCCC2)C(=O)N(C)CC(=O)N[C@@H](CCc2ccc(C(F)(F)F)c(Cl)c2)C(=O)N2CCC[C@H]2C(=O)NC2(CCCC2)C(=O)N(C)[C@@H](C(C)C)C(=O)N(C)[C@H](C(=O)N2CCCCC2)CC(=O)N1C [Compound 450] ([NMeL]T[NMeA][Aze][NMeCha][Sar][hPhe(3-Cl-4-CF3)]P[Ac5c][NMeV][NMeD]-Piperidide; lactam N-11) | > 500 nM | 6.6 nM
CCO[C@@H]1C[C@H]2C(=O)NC3(CCCC3)C(=O)N(C)[C@@H](C3CCCCC3)C(=O)N(C)[C@H](C(=O)N3CCCC3)CC(=O)N(C)[C@@H](CC(F)(F)F)C(=O)N[C@@H]([C@@H](C)CC)C(=O)N(C)CC(=O)N(C)CC(=O)N(C)[C@@H](Cc3ccc(C)cc3)C(=O)N(C)CC(=O)N[C@@H](CCc3ccc(C(F)(F)F)c(Cl)c3)C(=O)N2C1 [Compound 1339] ([NMeAbu(4,4,4-F3)]I[Sar][Sar][NMePhe(4-Me)][Sar][hPhe(3-Cl-4-CF3)][Hyp](Et)[Ac5c][NMeChg][NMeD]-Pyrrolidide; lactam N-11) | ≤ 20 nM | 0.57 nM
